In PubChem BioAssay (NCI):
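Cells were grown in 96-well plates and exposed to each compound for 48 hours at five concentrations; endpoints were interpolated linearly between bracketing concentrations, or set to the highest concentration if not reached. GI50 is the concentration that inhibits growth by half. TGI marks complete inhibition of growth.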

Tests used:
Experiment in all cases: NCI anticancer screen, dose series, 48 h
HT29 colon = test system: HT29 colon
OVCAR-4 ovarian = test system: OVCAR-4 ovarian
OVCAR-5 ovarian = test system: OVCAR-5 ovarian
SK-MEL-2 melanoma = test system: SK-MEL-2 melanoma
SN12C renal = test system: SN12C renal
U251 CNS = test system: U251 CNS
UO-31 renal = test system: UO-31 renal
HCT-15 colon = test system: HCT-15 colon
DU-145 prostate = test system: DU-145 prostate
MCF7 breast = test system: MCF7 breast

Row | SMILES | TGI (HT29 colon) [µM] | TGI (OVCAR-4 ovarian) [µM] | TGI (OVCAR-5 ovarian) [µM] | TGI (SK-MEL-2 melanoma) [µM] | TGI (SN12C renal) [µM] | TGI (U251 CNS) [µM] | TGI (UO-31 renal) [µM] | TGI (HCT-15 colon) [µM] | GI50 (HCT-15 colon) [µM] | GI50 (HT29 colon) [µM] | GI50 (OVCAR-4 ovarian) [µM] | GI50 (OVCAR-5 ovarian) [µM] | GI50 (SK-MEL-2 melanoma) [µM] | GI50 (SN12C renal) [µM] | GI50 (U251 CNS) [µM] | GI50 (UO-31 renal) [µM] | GI50 (DU-145 prostate) [µM] | TGI (DU-145 prostate) [µM] | GI50 (MCF7 breast) [µM] | TGI (MCF7 breast) [µM]
1 | CC1=C(C(=O)Nc2cc(=O)n(C)c(=O)n2C)C(c2cccc([N+](=O)[O-])c2)C(C(=O)Nc2cc(=O)n(C)c(=O)n2C)=C(C)N1 | > 100 | > 100 | > 100 | > 100 | > 100 | > 100 | > 100 | – | – | – | – | – | – | – | – | – | – | – | – | –
2 | COc1cc(OC)c(SSCCCCS(=O)O)c(OC)c1 | 32.9 | > 100 | 30.5 | 54.6 | 33.6 | 27.9 | 40.6 | 34.2 | – | – | – | – | – | – | – | – | – | – | – | –
3 | C[C@]12CCC(=O)C(O)=C1CC[C@@H]1C2CC[C@]2(C)NC(=O)CCC12 (stereo not given in full) | > 100 | > 100 | > 100 | > 100 | > 100 | > 100 | > 100 | > 100 | – | – | – | – | – | – | – | – | – | – | – | –
4 | CC(C)[O-].CC(C)[O-].O=C1C=C([O-])C(=O)c2ccccc21.O=C1C=C([O-])C(=O)c2ccccc21.[Ti+4] | > 100 | > 100 | > 100 | > 71.2 | > 100 | > 100 | > 100 | > 100 | > 73.4 | 34.9 | > 100 | > 100 | 17.2 | > 100 | > 68.8 | > 100 | – | – | – | –
5 | COc1ccc(C(=O)C(C(=O)CC(=O)Nc2cccc(C(F)(F)F)c2)c2ccc(OC)cc2)cc1 (stereo not given) | > 100 | > 100 | > 100 | > 100 | > 100 | > 100 | > 100 | > 100 | – | – | – | – | – | – | – | – | – | – | – | –
6 | CCOC(=O)Cc1ccc2c(c1O)C(=O)c1c(ccc(CC(=O)OCC)c1O)C2=O | > 100 | – | > 100 | > 100 | > 100 | > 100 | > 100 | – | – | – | – | – | – | – | – | – | – | – | – | –
7 | Cc1ccc(NC2=C(Cl)C(=O)N(Cc3ccc(Cl)cc3)C2=O)cc1O | – | > 100 | – | 26.7 | 30.5 | > 100 | 69 | – | – | – | 25.4 | – | 10.7 | 13.3 | 4.88 | 17.6 | 14.9 | 40.6 | 6.73 | 27.5
8 | Cc1cc(-c2nc3sccn3c2/C=N/N=C(N)N)c(C)s1 | 33.8 | 35.3 | 26.9 | – | 30.9 | 32.9 | 36.9 | 30 | 16.4 | 15.6 | 16.2 | 14 | – | 15.7 | 18 | 21.1 | 14.2 | 27.8 | – | –
9 | Cn1nc(-c2ccccc2)c(C(=O)/C=C/c2ccc(Cl)cc2)c(N2CCCCC2)c1=O | 6.9 | – | – | – | 20.5 | 3.82 | 3.03 | 15 | – | – | – | – | – | – | – | – | – | – | – | –
10 | Nc1c2c(c(O)c3c1=C(CO)C=N3)=NCCS2 | 0.37 | 0.264 | 0.346 | 0.658 | 0.332 | 0.329 | 0.345 | 0.381 | 0.166 | 0.0794 | 0.136 | 0.184 | 0.25 | 0.167 | 0.18 | 0.161 | 0.127 | 0.253 | – | –
11 | O=C(c1ccccc1)c1c(-c2ccccc2)sc2nc3ccccc3nc12 | > 100 | > 100 | > 100 | > 100 | > 100 | > 100 | – | > 100 | – | – | – | – | – | – | – | – | – | – | – | –
12 | COC(=O)CC[C@]1(C)O[C@H]2[C@H]([C@@H](C)CCCC(C)=O)OC(=O)[C@@H]2C[C@H]1O | > 100 | > 100 | > 100 | > 100 | > 100 | > 100 | > 100 | > 100 | > 100 | > 100 | > 100 | > 100 | > 100 | > 100 | > 100 | > 100 | – | – | > 100 | > 100
13 | COc1ccc2c3c([nH]c2c1[N+](=O)[O-])C(C)N(Cc1ccc([N+](=O)[O-])cc1)CC3 (stereo not given) | 35.3 | 12.2 | > 100 | 41 | 60.7 | 46.9 | > 100 | 54.9 | – | – | – | – | – | – | – | – | – | – | – | –
14 | O=S(=O)(NCCCNc1nccc(-c2c(-c3ccc(F)c(O)c3)nc3sccn23)n1)c1ccc(F)cc1 | 37.8 | – | > 100 | 3.01 | – | > 100 | 7.77 | 10.8 | 2.42 | 2.94 | – | 3.41 | 0.717 | – | 3.47 | 2.96 | – | – | 2.39 | 7.76
15 | COc1ccccc1C(O)(c1ccccc1)C(O)(c1ccccc1)c1ccccc1OC (stereo not given) | > 100 | > 100 | > 100 | > 100 | > 100 | > 100 | > 100 | > 100 | – | – | – | – | – | – | – | – | – | – | – | –
16 | c1cc(N2CCCN(c3ccc(C4=NCCCN4)cc3)CC2)ccc1C1=NCCCN1 | > 100 | > 100 | > 100 | – | – | > 100 | > 100 | > 100 | > 100 | > 100 | > 100 | > 100 | – | – | 65.9 | > 100 | > 100 | > 100 | > 100 | > 100
17 | CCN(CC)CCCNC(=O)C1COc2cc(-c3cc(=O)c4ccccc4o3)ccc2O1 (stereo not given) | > 100 | > 100 | > 100 | – | > 100 | > 100 | > 100 | > 100 | – | – | – | – | – | – | – | – | – | – | – | –
18 | CC1=C[C@]2(O)C(=O)[C@H](C)C[C@H]3[C@@H](CC[C@@](C)(O)/C=C\2C1=O)C3(C)C | > 71.6 | 71.6 | > 100 | 37.9 | 41.5 | 52.7 | > 100 | 32.4 | – | – | – | – | – | – | – | – | – | – | – | –
19 | CCOc1ccc(N=Cc2ccc3cc(C)ccc3n2)cc1 | > 100 | > 100 | > 100 | > 100 | > 100 | > 100 | > 100 | > 100 | – | – | – | – | – | – | – | – | – | – | – | –
